Patent publication EP1980559A1, “Cardiovascular agents” (CTG Pharma S.r.l., priority 2007, dated 2008)

Tests used:
[1] = tested on: spontaneously hypertensive rats (SHRs); assay: Antihypertensive activity in vivo: systolic blood pressure by telemetry in conscious SHRs; conditions: daily oral dose for 3 days, losartan 10 mg/kg po or equimolar dose; for Systolic blood pressure (SBP) 1 hr: 1 hr after dosing; for Systolic blood pressure (SBP) 12 hr: 12 hr after dosing; for Systolic blood pressure (SBP) 24 hr: 24 hr after dosing
Method: The ability of compound of example 1 to decrease blood pressure was evaluated in conscious spontaneously hypertensive rats (SHRs).
Three groups of SHRs (250-300g) received daily oral dose of losartan (10 mg/kg po) or compound of example 1 (equimolar dose) or vehicle (SHR control group) for 3 days. Systolic blood pressure (SBP) and heart rate were monitored by telemetry at different time points after dosing. The SBP was measured at baseline and after 1 hour, 12 hours and 24 hours.

NAD(P)H oxidases [2] = assay: NAD(P)H oxidases inhibition: superoxide (O2^-) release by ferricytochrome c reduction in PAVSMCs; format: cell-based, porcine; conditions: PAVSMCs stimulated with LPS, TNFα and IL1α; 100 nM; 16 hours incubation
Method: (§1) The method described by Muzaffar S, Shukla N, Angelini GD, Jeremy JY; "Prednisolone augments superoxide formation in porcine pulmonary artery endothelial cells through differential effects on the expression of nitric oxide synthase and NADPH oxidase" in Br. J. Pharmacol. 2005 Ju1;145(5):688-97 was used.
(§2) Briefly lungs were obtained from male pigs of body weight ranging from 20 - 35 kg. Pulmonary arteries (PA) of between 3-4 mm diameter were dissected from the lungs within 30 minutes and placed in Dulbecco's Minimum Essential Medium (DMEM). The arteries were then cut into 2 mm segments for preparation of cell cultures. PAECs were grown in Endothelial Cell Growth Medium at 37°C in a 95% air-5% CO2 incubator. The measurement of superoxide (O2^-) release by cells was performed by detection of ferricytochrome c reduction.
(§3) The reduction of cytochrome c that was inhibitable with SOD reflected actual O2^- release. PAVSMCs and PAECS were seeded and incubated with the TXA2 analogue, U46619, isoprostane F2α,LPS (endotoxin) human recombinant IL-1α and human recombinant TNF-α, alone or with drugs for 16 hours. RESULTS
(§4) LPS, IL-1α, TNF-α and U46619 all promoted the formation of O2^- in both porcine pulmonary artery VSMCs (PAVSMCs) and endothelial cells (PAECS) compared to untreated controls following a 16 hour incubation. […]

[3] = tested on: isolated rabbit thoracic aorta preparations; assay: Study on vascular tone: vasorelaxation in isolated rabbit thoracic aorta preparations; conditions: aorta rings contracted submaximally with noradrenaline (1 µM); concentration-response curve
Method: The ability of ARB derivatives to induce vasorelaxation in comparison to native ARB, was tested in vitro in isolated rabbit thoracic aorta preparations (Wanstall J. C. et al., Br. J. Pharmacol., 134:463-472, 2001). Male New Zealand rabbits were anaesthetized with thiopental-Na (50 mg/kg, iv), sacrificed by exsanguinations and then the thorax was opened and the aorta dissected.
Single ring preparations (4 mm in length) of thoracic aorta were set up in physiological salt solution at 37 °C in small organ chambers (5 ml). Each ring was mounted under 2g passive tension in 5 ml organ bath. Preparations were allowed to equilibrate for 1 h, then contracted submaximally with noradrenaline (NA, 1 µM) and, when the contraction was stable, acetylcholine (ACh, 10 µM) was added.
A relaxant response to ACh indicated the presence of a functional endothelium.

NAD(P)H oxidases [4] = assay: NAD(P)H oxidases inhibition: superoxide (O2^-) release by ferricytochrome c reduction in PAECs; format: cell-based, porcine; conditions: PAECs stimulated with LPS, TNFα and IL1α; 100 nM; 16 hours incubation
Method: as §1, §2, §3, §4

SMILES | Systolic blood pressure (SBP) 1 hr [1] | Systolic blood pressure (SBP) 12 hr [1] | Systolic blood pressure (SBP) 24 hr [1] | Systolic blood pressure (SBP) Baseline [1] | formation of O2^- (NAD(P)H oxidases [2]) | relaxation [3] | formation of O2^- (NAD(P)H oxidases [4])
CCCCc1nc(Cl)c(COC(=O)c2ccc(-c3cssc3=S)cc2)n1Cc1ccc(-c2ccccc2-c2nn[nH]n2)cc1 [Cpd EX.1, 4-(3-thioxo-3H-1,2-dithiol-4-yl)benzoic acid 2-butyl-4-chloro-1-[p-(o-1H-tetrazol-5-ylphenyl)-benzyl]imidazole-5-methyl ester] | 120 mm Hg | 121 mm Hg | 122 mm Hg | 145 mm Hg |  |  | 
CCCCc1nc(Cl)c(CO)n1Cc1ccc(-c2ccccc2-c2nn[nH]n2)cc1 [Losartan, losartan] | 135 mm Hg | 134 mm Hg | 135 mm Hg | 143 mm Hg | no significant effect | did not produce relaxation at any of the concentration tested | no significant effect
